Measured values taken from US20210283092A1, “METHODS AND USES OF […] DERIVATIVES” (priority 2018, published 2021).
“Also recorded” adds a separate entry of the source.

What was measured:
[1] = system: human neutrophils stimulated with MSU; experiment: MSU-induced calcium mobilization in human neutrophils (Fura-2); type: cell-based; details: for effect on MSU-induced calcium levels: 10 μM 28a, 39, 47a, 89, 1 μM 14, 3 μM 43, TPO at indicated concentrations; for lowest concentration significantly inhibiting the MSU-induced increase in intracellular calcium: 1 mg/ml MSU, 30 min pre-incubation; for type of dose response, cytoplasmic calcium: 0.01 to 10 μM
Description: Neutrophils were isolated from venous blood of healthy adult volunteers. Briefly, venous blood was obtained in tubes containing isocitrate, red blood cells were sedimented in 2% dextran and neutrophils were aseptically purified by centrifugation on Ficoll-Paque cushions. Contaminating erythrocytes were removed by hypotonic lysis and neutrophils were resuspended in Mg^2+-free HBSS containing 1.6 mM of CaCl2.
(FIG. 7D), D1=(28a) (FIGS. 7E and 7J), D2=(39) (FIG. 7F), D3=(47a) (FIGS. 7G and 7J), D4=(89) (FIG. 7H) prior to the addition of MSU (1 mg/ml).
The intracellular calcium concentration was determined with a spectrofluorometer and is expressed as the area under the curve (from the MSU injection up to 100 sec).
Changes in cytoplasmic calcium were then measured after the addition of MSU or HBSS (the negative control) using two excitation wavelengths at 340 and 380 nm and an emission wavelength of 510 nm. The free internal calcium concentration was estimated from the ratio of the fluorescence values obtained at 340 and 380 nm. The results are calculated as the area under the curve of the intracellular calcium concentration as a function of time (0-100 sec relative to stimulus addition).
Since one of the earliest molecular events in neutrophils that is initiated by MSU is the mobilization of intracellular calcium stores, the effect of (91) (CCl), (43) and (47a) was assessed on this early signalling event. Briefly, and as described in further detail above, human neutrophils were incubated with the fluorescent calcium indicator Fura-2 prior to incubation with a range of concentrations of (91) (CCl), (43) or (47a) and stimulated with MSU. Fura-2 monitors the increase in cytoplasmic calcium caused by its release from intracellular stores.

[2] = system: human neutrophils stimulated with MSU; experiment: CXCL8/IL-8 release by human neutrophils (ELISA); type: cell-based; details: for lowest concentration giving significant decrease in MSU-induced release of IL-8: 1 mg/ml MSU, 3 h
Description: (§1) Extracellular CXCL8/IL-8 or IL-1β were quantified by ELISA (Invitrogen). All samples were measured in duplicate.
In addition, since IL-1 induces the expression of adhesion molecules on endothelial cells as well as the synthesis of pro-inflammatory cytokines, which together promote a massive recruitment of neutrophils, the ability of CCl (91) and CH-35 (43) to dampen the production of IL-1 was also assessed.

[3] = system: human neutrophils stimulated with MSU; experiment: IL-1 release by TNF-α primed human neutrophils (ELISA); type: cell-based; details: 1 mg/ml MSU, 3 h
Description: as §1
The production and secretion of mature IL-1 requires two stimuli. Human neutrophils were, therefore, primed with TNF-α prior to stimulation with MSU. […] (FIG. 8H-J).

[4] = system: human neutrophils stimulated with MSU; experiment: Superoxide production by human neutrophils (cytochrome C reduction); type: cell-based; details: for lowest concentration inhibiting MSU-induced superoxide production: 1 mg/ml MSU
Description: The results are expressed as a ratio of the superoxide produced by the MSU control.
Superoxide production was measured using the reduction of cytochrome C assay. The difference between the optical density readings at 550 nm and 540 nm read within the first 10 minutes was multiplied by the extinction coefficient of cytochrome C to obtain the number of nmol O2 produced by 1×10^6 cells. The results are expressed as nmol O2/1×10^6 cells/ml.
An additional neutrophil effector function that is calcium-dependent, known to be activated by MSU and that can cause damage to the inflamed joint, is the production of ROS.

[5] = Plasma concentration and half-life in mice after subcutaneous injection
Description: The concentration of the compound in the plasma (FIGS. 10A and B) was determined by mass spectrometry. The concentration of (91) (CCl) or CH-35 (43) is expressed as the means of the amount of (91) (CCl) or CH-35 (43) measured in the plasma (ng/ml) of 5 mice harvested at the same time point.

[6] = Concentration in circulating leukocytes of mice after subcutaneous injection
Description: Blood was harvested by cardiac puncture and centrifuged to obtain circulating leukocytes. The concentration of the compound in the leukocytes (FIGS. 11A and B) was determined by mass spectrometry. The concentration of (91) (CCl) or CH-35 (43) is expressed as the means of the amount of (91) (CCl) or CH-35 (43) measured in circulating leukocytes (ng/ml) of 5 mice harvested at the same time point.

[7] = system: MSU-induced leukocyte recruitment to the dorsal air-pouch; experiment: Air-pouch model, compound given 1.5 hours after MSU; type: in vivo, mice; details: for lowest dose significantly dampening MSU-induced leukocyte recruitment: subcutaneous 1.5 hours after MSU
Description: (§2) An air-pouch was generated on the dorsum of mice over a period of seven days by injecting air subcutaneously. […] Seven hours after the administration of MSU, the exudate in the air pouches was harvested by two flushes with 2 ml and one with 1 ml of PBS+0.5 M EDTA and the number of recruited leukocytes determined by flow cytometry. Leukocytes were stained with an anti-CD45 and anti-Ly6 G antibody.

[8] = system: human neutrophils stimulated with fMLP; experiment: fMLP-induced increase in cytoplasmic calcium in human neutrophils; type: cell-based; details: 10 μM compound, 10^−7 M fMLP
Description: The intracellular calcium concentration was determined with a spectrofluorometer and is expressed as the area under the curve.
To assess the specificity of CCl (91) towards neutrophil activation by MSU, it was determined whether CCl (91) was able to inhibit neutrophil responses towards an unrelated stimulus. A bacterial stimulus was chosen because neutrophil activation in response to this stimulus affects the survival of the host. Briefly, human neutrophils were incubated with the 10 μM CCl (91) prior to the activation with the bacterial peptide fMLF. […] In the presence of CCl (91), however, the cytoplasmic calcium response was unaffected.

[9] = system: MSU-induced leukocyte recruitment to the dorsal air-pouch; experiment: Air-pouch model, compound given 5 min prior to MSU; type: in vivo, CD-1 mice
Description: as §2

[10] = Acute toxicity study in rats; type: in vivo
[11] = system: atherosclerosis in LDLR KO mice; experiment: Mouse model of atherosclerosis, high-fat diet; type: in vivo
Description: LDLR KO mice were randomly divided into 4 groups and either fed a control (CD) diet (group 1 & 2) or high-fat (group 3 & 4) diet. The high-fat (HF) diet contained 0.2% total cholesterol, 21% total fat by weight (42% kcal from fat), >60% of total fatty acids) and was high in sucrose (34% by weight). The animals and their feed were weighed every week.
Mice in group 2 & 4 were administered a dose of 0.5 μmol/kg CCl subcutaneously (s.c), 3 times a week for 8 weeks.
Blood was drawn from mice after the 8-week diet. Serum was prepared from the drawn blood and frozen until analysis. Serum triglycerides and cholesterol were measured in serum of mice by our Multidisciplinary and Microbiology Laboratory Service.
The aortic lesion ‘en face’ assay and Sudan IV staining was performed on aortas harvested from all mice. The percent lipid stained area in the aortic branch and the descending aorta was compared between mice using the ‘region of interest’ tool in ImageJ.
Blood was drawn from mice after the 8-week diet. Serum was prepared from the drawn blood and frozen until analysis. The levels of cytokines in the serum were measured by Luminex assay. The cytokines assayed were Eotaxin (CCL11), CCL21, G-CSF (CSF-3), RANKL, VEGF-A, IL-1 beta, IL-6 & MCP-1 (CCL2). These cytokines were chosen based on a cytokine signature that was reported to reflect the development of atherosclerosis in ApoE KO mice. The LDLR KO model was used since the inflammatory aspect of atherosclerosis is better represented in this model.

[12] = system: MSU-induced leukocyte recruitment to the dorsal air-pouch; details: literature value (Chia et al. 2008); cited from earlier work
[13] = 0.5 μmol/kg s.c. 3 times a week, 8 weeks, HF diet
[14] = en face assay, Sudan IV, HF+CCl

Compound: COC(=O)N[C@H]1CCc2cc(O)c(OC)c(OC)c2-c2ccc(SC)c(=O)cc21 [(89)]
- effect on MSU-induced calcium levels [1]: exception

Compound: COC(=O)N(C)[C@H]1CCc2cc(OC)c(OC)c(OC)c2-c2ccc(SC)c(=O)cc21 [TPO, reference compound]
- effect on MSU-induced calcium levels [1]: inhibition at higher concentrations

Compound: CCCOc1cc2c(c(OC)c1OC)-c1ccc(SC)c(=O)cc1[C@@H](NC(C)=O)CC2 [(43), N-[(7S)-3-propoxy-1,2-dimethoxy-10-methylsulfanyl-9-oxo-5,6,7,9-tetrahydrobenzo [α]heptalen-7-yl]acetamide]
- effect on MSU-induced calcium levels [1]: neutrophil-inhibitory effects
- lowest concentration significantly inhibiting the MSU-induced increase in intracellular calcium [1]: 0.1 µM
- type of dose response, cytoplasmic calcium [1]: classical monotonic dose response
- lowest concentration giving significant decrease in MSU-induced release of IL-8 [2]: 0.1 µM
- concentration at which MSU-induced IL-1 production is diminished (threshold) [3]: 1 µM
- lowest concentration inhibiting MSU-induced superoxide production [4]: 0.1 µM
- time after injection at which plasma level dropped to undetectable ([5]; 5 μmol/kg subcutaneous, mice): about 50 minutes
- time of peak plasma concentration ([5]; 5 μmol/kg subcutaneous, mice): 15 min
- time of peak concentration in circulating leukocytes ([6]; 5 μmol/kg subcutaneous, mice): 15 min
- lowest dose significantly dampening MSU-induced leukocyte recruitment [7]: 2.5 µmol/kg

Compound: COc1cc2c(c(OCc3ccccc3Cl)c1OC)-c1ccc(OC)c(=O)cc1[C@@H](NC(C)=O)CC2 [(14), N-[(7S)-2,3,10-trimethoxy-9-oxo-1-((phenyl(2-chloro))methoxy)-5,6,7,9-tetrahydrobenzo[α]heptalen-7-yl] acetamide]
- effect on MSU-induced calcium levels [1]: neutrophil-inhibitory effects

Compound: CCOc1cc2c(c(OC)c1OC)-c1ccc(SC)c(=O)cc1[C@@H](NC(=O)OC)CC2 [(91)]
- effect on MSU-induced increase in cytoplasmic calcium at 10 μM ([1]; 10 μM): does not have a significant effect
- lowest concentration significantly inhibiting the MSU-induced increase in intracellular calcium [1]: 0.1 µM
- type of dose response, cytoplasmic calcium [1]: non-monotonic dose response
- fold lower concentration than colchicine for inhibiting calcium mobilization ([1]; versus colchicine): about 100 fold
- cytoplasmic calcium response to fMLF in presence of compound [8]: unaffected
- lowest concentration giving significant decrease in MSU-induced release of IL-8 [2]: 0.1 µM
- fold lower concentration than colchicine for inhibiting release of IL-8 ([2]; versus colchicine): about 10 fold
- concentration at which MSU-induced IL-1 production is diminished (threshold) [3]: 0.1 µM
- lowest concentration inhibiting MSU-induced superoxide production [4]: 0.1 µM
- fold lower concentration than colchicine for inhibiting superoxide production ([4]; versus colchicine): about 10 fold
- persistence in the plasma ([5]; 5 μmol/kg subcutaneous, mice): at least 2 hours
- fraction of peak plasma concentration by 60 minutes ([5]; mouse, in vivo, sc): less than ¼
- peak plasma concentration ([5]; mouse, in vivo, sc): 80 ng/mL
- time of peak plasma concentration ([5]; mouse, in vivo, sc): 15 min
- half-life ([5]; mouse, in vivo, sc, 5 umol/kg): 13.3 min
- time of peak concentration in circulating leukocytes ([6]; mouse, in vivo, sc): 15 min
- fold lower dose than colchicine inhibiting leukocyte recruitment ([9]; mouse, in vivo): ~10 fold
- dose inhibiting MSU-induced leukocyte recruitment ([9]; mouse, in vivo, sc): 0.5 µmol/kg
- fold lower dose than effective dose of colchicine inhibiting leukocyte recruitment ([7]; mouse, in vivo): about 10 fold
- lowest dose significantly dampening MSU-induced leukocyte recruitment [7]: 0.5 µmol/kg
- toxicity compared with colchicine ([10]; acute toxicity study in rats): less toxic than colchicine
- maximal tolerable dose relative to colchicine ([10]; rats): 3 fold
- behaviour and tolerability ([11]; 0.5 μmol/kg s.c. 3 times a week, 8 weeks): did not show any signs of suffering
- serum cholesterol versus HF diet alone [11, 13]: lower
- serum triglycerides versus HF diet alone [11, 13]: lower
- effect on serum cytokine levels ([11]; Luminex, HF diet 8 weeks): no significant effect
- percent of total area of the aortic arch covered by lesions versus HF diet [11, 14]: smaller percent
- percent of total area of the descending aorta covered by lesions versus HF diet [11, 14]: smaller percent
- percent of total area of the descending aorta covered by lesions ([11]; majority of mice in the HF+CCl group): less than 1%

Compound: N-[(7S)-1,2,3,10-tetramethoxy-9-oxo-5,6,7,9-tetrahydrobenzo[α]heptalen-7-yl] acetamide [Colchicine, reference compound]
- lowest concentration significantly inhibiting the MSU-induced increase in intracellular calcium [1]: 10 µM
- lowest concentration giving significant decrease in MSU-induced release of IL-8 [2]: 1 µM
- concentration at which MSU-induced IL-1 production is diminished (threshold) [3]: 10 µM
- lowest concentration inhibiting MSU-induced superoxide production [4]: 1 µM
- effect on MSU-induced leukocyte recruitment at 0.5 μmol/kg ([9]; 0.5 μmol/kg, 5 min prior to MSU): lost its potency to significantly inhibit
- dose inhibiting MSU-induced leukocyte recruitment ([9]; subcutaneous 5 min prior to MSU, 7 hours): 5 µmol/kg
- effect on MSU-induced leukocyte recruitment at 0.5 μmol/kg ([7]; 0.5 μmol/kg, after MSU): no longer able to significantly inhibit; also recorded: loses its anti-inflammatory activity
- dose that effectively dampens MSU-induced leukocyte recruitment in mice [12]: 5 µmol/kg

Compound: COc1cc2c(c(OC)c1OC)-c1ccc(SC)c(=O)cc1[C@@H](NC(C)=O)CC2 [(39), N-[(7S)-1,2,3-trimethoxy-10-methylsulfanylo-9-oxo-5,6,7,9-tetrahydrobenzo [α]heptalen-7-yl]acetamide]
- effect on MSU-induced calcium levels [1]: neutrophil-inhibitory effects
